{"source": "patent US20020147155A1", "about": "“Prevention and treatment of endometriosis with aryl hydrocarbon receptor binding ligands” (priority 2001, published 2002)", "key": {"[1]": {"molecular_target": "T1, aryl hydrocarbon receptor (Homo sapiens, UniProt P35869)", "T1 sequence (P35869 11-848)": "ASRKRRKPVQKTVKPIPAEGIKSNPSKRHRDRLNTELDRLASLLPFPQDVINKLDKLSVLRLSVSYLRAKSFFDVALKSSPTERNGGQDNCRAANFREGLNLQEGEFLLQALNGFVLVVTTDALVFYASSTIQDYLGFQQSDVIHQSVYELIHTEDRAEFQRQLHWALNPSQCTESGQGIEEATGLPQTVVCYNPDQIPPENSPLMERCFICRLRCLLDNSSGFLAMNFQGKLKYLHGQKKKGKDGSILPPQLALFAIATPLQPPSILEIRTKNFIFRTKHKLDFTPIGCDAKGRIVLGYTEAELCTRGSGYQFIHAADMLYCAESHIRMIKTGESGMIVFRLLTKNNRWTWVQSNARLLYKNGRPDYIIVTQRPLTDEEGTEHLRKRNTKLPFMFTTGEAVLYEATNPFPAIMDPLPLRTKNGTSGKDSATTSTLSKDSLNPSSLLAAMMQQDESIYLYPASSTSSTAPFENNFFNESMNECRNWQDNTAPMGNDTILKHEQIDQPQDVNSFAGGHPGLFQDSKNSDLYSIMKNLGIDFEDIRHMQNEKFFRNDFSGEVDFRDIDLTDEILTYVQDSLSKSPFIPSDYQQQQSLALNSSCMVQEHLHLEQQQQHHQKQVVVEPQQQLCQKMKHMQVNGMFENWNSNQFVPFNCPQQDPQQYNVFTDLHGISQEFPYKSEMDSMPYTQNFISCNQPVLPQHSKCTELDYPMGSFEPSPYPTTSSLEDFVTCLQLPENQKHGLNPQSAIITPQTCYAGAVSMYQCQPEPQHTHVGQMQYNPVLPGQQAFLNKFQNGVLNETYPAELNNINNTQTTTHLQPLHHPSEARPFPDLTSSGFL", "settings": "in culture; cited from earlier work"}, "estrogen metabolites": {"system": "estrogen metabolites", "settings": "oral administration, women; cited from earlier work"}, "uterus": {"system": "uterus", "settings": "animal experiment; cited from earlier work"}, "endometriosis": {"system": "endometriosis", "settings": "rodents and monkeys; cited from earlier work"}, "endometriotic tissue": {"system": "endometriotic tissue", "experiment": "Surgically induced endometriosis (autotransplanted endometrial fragments) in cynomolgus monkeys, laparoscopy", "assay_type": "in vivo, Macaca fascicularis", "settings": "for Endometriotic lesion diameter: control 11.4±1.6", "text": "Numerous animal models of endometriosis have been developed involving rabbits (Rock, J A et al., Intraocular endometrium in the rabbit as a model for endometriosis, Fertil. Steril. 59:232-35 [1993]), rodents (Sakura, Y et al., Histological studies on the therapeutic effect of sustained-release microspheres of a potent LHRH agonist (leuprorelin acetate) in an experimental endometriosis model in rats, Endocrinol. Jpn. 37:719-729 [1990]; Rajkumar, K et al., The rat as an animal model for endometriosis to examine recurrence of ectopic endometrial tissue after regression, Fertil. Steril. 53:921-25 [1990]; Sudo, K et al., Effects of TAP-144-SR, a sustained-release formulation of a potent GnRH agonist, on experimental endometriosis in the rat, Endocrinol. Jpn. […] Gynecol. […] Steril. […] An. Sci. 33 :P15 [1994]; Cummings, A M and Metcalf, J L, Induction of endometriosis in mice: a new model sensitive to estrogen, Reprod. Toxicol. 9:233-38 [1995]; Cummings, A M et al., Promotion of endometriosis by 2,3,7,8-tetrachlorodibenzo-p-dioxin in rats and mice: time-dose dependence and species comparison, Toxicol. Appl. Pharmacol. 138:131-39 [1996]; Foster, W G et al., Morphologic characteristics of endometriosis in the mouse model: application to toxicology, Can. J. Physiol. Pharmacol. 75:1188-96 [1997]; Aoki, D et al., Successful heterotransplantation of human endometrium in SCID mice, Obstet. Gynecol. 83:220-28 [1994]; Bruner, K L et al., Suppression of matrix metalloproteinases inhibits establishment of ectopic lesions by human endometrium in nude mice, J. Clin. Invest. 99:2851-57 [1997]), and non-human primates (Schenken, R S et al., Etiology of infertility in monkeys with endometriosis: luteinized unruptured follicles, luteal phase defects, pelvic adhesions, and spontaneous abortions, Fertil. Steril. 41:122-30 [1984]; Rier, S E et al., Endometriosis in rhesus monkeys (Macaca mulatta) following chronic exposure to tetrachlorodibenzo-p-dioxin, Fund. Appl. Toxicol. 21:433-41 [1993]; D'Hooghe, T D et al., Development of a model of retrograde menstruation in baboons (Papio anubis), Fertil. Steril. 62:635-38 [1994]). […] Therefore, a non-human primate model was selected, because monkeys and baboons spontaneously develop endometriosis, the pathophysiology of the disease resembles humans and abundant tissue can be obtained for study purposes. In particular, nulliparous female cynomolgus monkeys (Macaca fascicularis) were the animals chosen.\nThe effects of subchronic exposure to an AhR binding ligand was examined in a non-human primate model. Endometrial fragments were surgically autotransplanted to the pelvic cavity of nulliparous cynomolgus monkeys (Macaca fascicularis, n=23). Briefly, each monkey's own endometrial tissue was obtained during a laparotomy in which the body of the uterus was opened in the anterior midline. A strip of endometrium was removed by careful dissection and divided into a number of equal pieces, one of which was used for histopathology to confirm the presence of both endometrial epithelium and stroma. […]\nThe monkeys were divided into 4 treatment groups and dosed five days a week with gelatin capsules containing 0, 1, 5 or 25 ng/kg body mass of AhR binding ligand 2,3,7,8-tetrachlorodibenzo-p-dioxin (TCDD), mixed with glucose. Endometriotic implant survival and diameter were monitored by laparoscopy at intervals of one, three, six and 12 months."}}}
{"molecule": "NCCc1c[nH]c2ccccc12", "note": "[tryptamine]", "values": [{"measurement": "Binding to and activation of aryl hydrocarbon receptor", "setting": "[1]", "result": "bind to and activate"}]}
{"molecule": "N[C@@H](Cc1c[nH]c2ccccc12)C(=O)O", "note": "[tryptophan]", "values": [{"measurement": "Binding to and activation of aryl hydrocarbon receptor", "setting": "[1]", "result": "bind to and activate"}]}
{"molecule": "OCc1c[nH]c2ccccc12", "note": "[indole-3-carbinol]", "values": [{"measurement": "Levels of estrogen metabolites", "setting": "estrogen metabolites", "result": "reduce levels of estrogen metabolites"}]}
{"molecule": "Fc1ccc2[nH]cc(Cc3c[nH]c4ccccc34)c2c1", "note": "[5-fluoro-diindolylmethane]", "values": [{"measurement": "Uterine wet weight as a percentage of body weight", "setting": "uterus", "result": "increase"}]}
{"molecule": "Clc1cc2c(cc1Cl)Oc1cc(Cl)c(Cl)cc1O2", "note": "[TCDD, 2,3,7,8-tetrachlorodibenzo-p-dioxin]", "values": [{"measurement": "Effect on endometriosis", "setting": "endometriosis", "result": "promoted endometriosis"}, {"measurement": "Endometriotic lesion diameter", "setting": "endometriotic tissue; 0.71 ng/kg/day TCDD, oral gelatin capsules", "result": "4.2±0.9", "unit": "mm"}, {"measurement": "Endometriotic lesion survival rate", "setting": "endometriotic tissue; 0.71 ng/kg/day TCDD, oral, control 16%", "result": 20, "unit": "%"}, {"measurement": "Endometriotic lesion survival rate", "setting": "endometriotic tissue; 3.57 ng/kg/day TCDD for one year, oral, control 16.0%", "result": 26.7, "unit": "%"}, {"measurement": "Endometriotic lesion diameter", "setting": "endometriotic tissue; 17.86 ng/kg/day TCDD for one year, oral", "result": "14.5±0.2", "unit": "mm"}, {"measurement": "Endometriotic lesion survival rate", "setting": "endometriotic tissue; 17.86 ng/kg/day TCDD for one year, oral, control 16.0%", "result": 33.3, "unit": "%"}]}
